# Results as given in patent US5059612A, “Anti-dementia drug” (priority 1989, dated 1991).
# Like-named read-outs stand apart in the source and are kept apart here.
# Columns and labels:
# [1] = tested on: memory and learning disorders induced by scopolamine; experiment: 3-panel runway device: activity against memory and learning disorders induced by scopolamine; type: in vivo, rat
# Experimental: A 3-panel runway device (length: 175 cm, width: 36 cm and height: 25 cm) comprises a start box, four gateways equipped with three-panel gates and a goal box in which feed are put as the reward. The panel gates were designed so that only one of three panel gates in each gateway might be passable. Training of hungry rats to go out of the start box, reach the goal box and take the feed was made by continuous 6 sessions in 2 minute intervals. The training was carried out every day with the passable panel gate being varied every day. In the test, (1) time taken for the rat to reach the goal box and take the feed after it left the start box, and (2) the number of incorrect choices that the rat made trying to pass the impassable gate were recorded and measured in each session. Rats satisfying for consecutive 3 days the criterion that the total time for 6 sessions in one day was within 60 seconds, the total number of incorrect choices was under 12 and the number of incorrect responses in sessions 2 to 6 was not greater than 8 were estimated to have completely learned. The rats are used for the following test.
# mouse = mouse acute toxicity test of rolipram; conditions: in vivo
# Excerpt: (§1) The results of mouse acute toxicity test of rolipram are as follows.
# [2] = mouse acute toxicity test of rolipram; conditions: in vivo, read-out: ED50 Value (acute toxicity)
# Excerpt: as §1
# [3] = tested on: cerebral ischemia-induced learning and memory disorders; experiment: 3-panel runway device: effect on cerebral ischemia-induced learning and memory disorders; type: in vivo, rat; conditions: for number of incorrect responses, Session 1 / number of incorrect responses, Session 2 / number of incorrect responses, Session 3 / number of incorrect responses, Session 4 / number of incorrect responses, Session 5 / number of incorrect responses, Session 6: cerebral ischemia; for minimal effective dose: ip, i.p., read-out: dose improving the disorders induced by cerebral ischemia
# Experimental: A 3-panel runway device (length: 175 cm, width: 36 cm and height: 25 cm) comprises a start box, four gateways equipped with three-panel gates and a goal box in which feed are put as the reward. The panel gates were designed so that only one of three panel gates in each gateway might be passable. Training of hungry rats to go out of the start box, reach the goal box and take the feed was made by continuous 6 sessions in 2 minute intervals. The training was carried out every day with the passable panel gate being varied every day. […] The rats are used for the following test. According to the method of Pulsinelli et al., the both vertebral arteries of rat were burnt and cut under anesthesia with pentobarbital. After 24 hours, the whole carotid artery on both sides was blocked for 5 minutes under no anesthesia.
# [4] = tested on: space recognition disorders induced by scopolamine; experiment: Test on memory and study of rat using radial maize (scopolamine-induced space recognition disorder); type: in vivo
# Excerpt: Test on memory and study of rat using radial maize
# Rats under feed control were put at the central platform (diameter: 25 cm) of an 8-way radial maize (length and width of arm: 48 cm and 10 cm, 40 cm, height from the ground) and trained until they could efficiently take the feed put on the tip of the arm. Numbers of correct choices for the arms where the rats reached for the first time, number of incorrect choices for the arms where the rats reached two or more times and running time until completion of the session were measured for 10 minutes at maximum. When the results with not less than 7 correct choices were shown in 3 continuous sessions it was estimated that acquirement of space recognition was completed. Space recognition disorder was induced in the rats by administering 0.5 mg/kg of scopolamine (i.p., 30 minutes before the session) to study each activity of (±) rolipram, (+) rolipram and (-) rolipram (all administered p.o., 60 minutes before the session).
# [5] = tested on: mouse in oxygen-short state; experiment: Activity on survival time of mouse in oxygen-short state; type: in vivo; conditions: for Survival Time: 30 minutes before carbon dioxide, Control 195.8 ± 3.7
# Experimental: Activity on survival time of mouse in oxygen-short state
# Mice were put in a plastic box of 150 cm each in length, width and height, and carbon dioxide was injected from a lower inlet at a rate of 500 ml/min. The period from the start of injection to the respiratory standstill of mice was counted as the survival time. (±) Rolipram, (+) rolipram, and (-) rolipram were all intraperitoneally administered to mice 30 minutes before carbon dioxide was loaded.
# [6] = tested on: memory and learning deficits; experiment: overall conclusion from the experimental results using mice and rats; type: in vivo
# [7] = 0.1 mg/kg i.p. + scopolamine 0.56 mg/kg
# [8] = 0.02 mg/kg p.o., 60 minutes before session, + scopolamine 0.5 mg/kg i.p.
# [9] = 1 mg/kg i.p. + scopolamine 0.56 mg/kg
# [10] = 10 mg/kg p.o., 60 minutes before session, + scopolamine 0.5 mg/kg i.p.
# [11] = 0.032 mg/kg i.p. + scopolamine 0.56 mg/kg
# [12] = 0.01 mg/kg p.o., 60 minutes before session, + scopolamine 0.5 mg/kg i.p.
# [13] = scopolamine alone 0.56 mg/kg i.p.
structure (smiles),measurement,setting,value
COc1ccc(C2CNC(=O)C2)cc1OC1CCCC1 (racemic) [(±) Rolipram],"number of incorrect responses, Session 1",[1]; [7],5.67
same,"number of incorrect responses, Session 2",[1]; [7],3.00
same,"number of incorrect responses, Session 3",[1]; [7],1.67
same,"number of incorrect responses, Session 4",[1]; [7],1.00
same,"number of incorrect responses, Session 5",[1]; [7],1.00
same,"number of incorrect responses, Session 6",[1]; [7],1.17
same,minimal effective dose,"[1]; Rattus norvegicus, ip, rat, i.p., read-out: dose inhibiting the increase in the number of incorrect responses induced by scopolamine",0.1 mg/kg
same,safety,mouse,highly safe
same,LD50,[2]; ip,1500 mg/kg
same,LD50,[2]; po,4000 mg/kg
same,"number of incorrect responses, Session 1",[3]; 0.1 mg/kg i.p.,4.25
same,"number of incorrect responses, Session 2",[3]; 0.1 mg/kg i.p.,3.00
same,"number of incorrect responses, Session 3",[3]; 0.1 mg/kg i.p.,2.88
same,"number of incorrect responses, Session 4",[3]; 0.1 mg/kg i.p.,1.88
same,"number of incorrect responses, Session 5",[3]; 0.1 mg/kg i.p.,1.38
same,"number of incorrect responses, Session 6",[3]; 0.1 mg/kg i.p.,1.13
same,minimal effective dose,[3]; rat,0.1 mg/kg
same,Number of Correct Choice,[4]; [8],6.9 ± 0.2
same,Number of Incorrect Choice,[4]; [8],2.3 ± 1.1
same,minimal effective dose,"[4]; Rattus norvegicus, po, rat, p.o., read-out: dose showing the activity of improving space recognition disorders induced by scopolamine",0.02 mg/kg
same,Survival Time,[5]; 1.0 mg/kg i.p.,220.3 ± 6.9 s
same,minimal effective dose,"[5]; Mus musculus, ip, mouse, i.p., read-out: dose showing the action of prolonging the survival time",1 mg/kg
same,activity of improving memory and learning deficits,[6],showed the activity of improving memory and learning deficits
same,potency order in improving memory and learning deficits,[6],"more potent order of (-) rolipram, (±) rolipram and (+) rolipram"
"COc1ccc(C2CNC(=O)C2)cc1OC1CCCC1 (single isomer, unassigned; (+)) [(+) Rolipram]","number of incorrect responses, Session 1",[1]; [9],4.00
same,"number of incorrect responses, Session 2",[1]; [9],4.17
same,"number of incorrect responses, Session 3",[1]; [9],3.00
same,"number of incorrect responses, Session 4",[1]; [9],2.00
same,"number of incorrect responses, Session 5",[1]; [9],1.83
same,"number of incorrect responses, Session 6",[1]; [9],1.67
same,dose inhibiting the increase in the number of incorrect responses induced by scopolamine,"[1]; rat, i.p.",1 mg/kg
same,safety,mouse,highly safe
same,LD50,[2]; ip,> 2300 mg/kg
same,LD50,[2]; po,> 4000 mg/kg
same,"number of incorrect responses, Session 1",[3]; 1 mg/kg i.p.,5.33
same,"number of incorrect responses, Session 2",[3]; 1 mg/kg i.p.,3.67
same,"number of incorrect responses, Session 3",[3]; 1 mg/kg i.p.,2.00
same,"number of incorrect responses, Session 4",[3]; 1 mg/kg i.p.,2.83
same,"number of incorrect responses, Session 5",[3]; 1 mg/kg i.p.,1.67
same,"number of incorrect responses, Session 6",[3]; 1 mg/kg i.p.,1.50
same,improvement of the disorders induced by cerebral ischemia,"[3]; rat, 1 mg/kg i.p.",no improvement
same,Number of Correct Choice,[4]; [10],7.2 ± 0.3
same,Number of Incorrect Choice,[4]; [10],2.3 ± 1.6
same,dose showing the activity of improving space recognition disorders induced by scopolamine,"[4]; rat, p.o.",10 mg/kg
same,Survival Time,[5]; 3.0 mg/kg i.p.,217.2 ± 5.3 s
same,dose showing the action of prolonging the survival time,"[5]; mouse, i.p.",3.0 mg/kg
same,activity of improving memory and learning deficits,[6],showed the activity of improving memory and learning deficits
same,potency order in improving memory and learning deficits,[6],"more potent order of (-) rolipram, (±) rolipram and (+) rolipram"
"COc1ccc(C2CNC(=O)C2)cc1OC1CCCC1 (single isomer, unassigned; (-)) [(-) Rolipram]","number of incorrect responses, Session 1",[1]; [11],4.50
same,"number of incorrect responses, Session 2",[1]; [11],2.67
same,"number of incorrect responses, Session 3",[1]; [11],1.50
same,"number of incorrect responses, Session 4",[1]; [11],1.50
same,"number of incorrect responses, Session 5",[1]; [11],1.17
same,"number of incorrect responses, Session 6",[1]; [11],0.50
same,dose inhibiting the increase in the number of incorrect responses induced by scopolamine,"[1]; rat, i.p.",0.032 mg/kg
same,safety,mouse,highly safe
same,"number of incorrect responses, Session 1",[3]; 0.032 mg/kg i.p.,5.50
same,"number of incorrect responses, Session 2",[3]; 0.032 mg/kg i.p.,2.00
same,"number of incorrect responses, Session 3",[3]; 0.032 mg/kg i.p.,2.00
same,"number of incorrect responses, Session 4",[3]; 0.032 mg/kg i.p.,1.33
same,"number of incorrect responses, Session 5",[3]; 0.032 mg/kg i.p.,1.00
same,"number of incorrect responses, Session 6",[3]; 0.032 mg/kg i.p.,0.83
same,minimal effective dose,[3]; rat,0.032 mg/kg
same,Number of Correct Choice,[4]; [12],6.9 ± 0.3
same,Number of Incorrect Choice,[4]; [12],3.2 ± 1.1
same,dose showing the activity of improving space recognition disorders induced by scopolamine,"[4]; rat, p.o.",0.01 mg/kg
same,Survival Time,[5]; 0.3 mg/kg i.p.,219.8 ± 6.3 s
same,dose showing the action of prolonging the survival time,"[5]; mouse, i.p.",0.3 mg/kg
same,activity of improving memory and learning deficits,[6],showed the activity of improving memory and learning deficits
same,potency order in improving memory and learning deficits,[6],"more potent order of (-) rolipram, (±) rolipram and (+) rolipram"
"CN1[C@@H]2C[C@@H](OC(=O)[C@H](CO)c3ccccc3)C[C@H]1[C@@H]1O[C@@H]12 [Scopolamine, scopolamine]","number of incorrect responses, Session 1",[1]; [13],6.21
same,"number of incorrect responses, Session 2",[1]; [13],4.74
same,"number of incorrect responses, Session 3",[1]; [13],3.24
same,"number of incorrect responses, Session 4",[1]; [13],3.11
same,"number of incorrect responses, Session 5",[1]; [13],2.68
same,"number of incorrect responses, Session 6",[1]; [13],2.32
same,Number of Incorrect Choice,"[4]; scopolamine alone 0.5 mg/kg i.p., Control 0.3 ± 0.1",7.1 ± 0.9
same,Number of Correct Choice,"[4]; scopolamine alone 0.5 mg/kg i.p., Control 7.9 ± 0.2",5.9 ± 0.2
